# From ChEMBL document CHEMBL1121960, “Importance of the aromatic ring in adrenergic amines. 8. 2-(Aminomethyl)-trans-2-decalols as inhibitors of norepinephrine N-methyltransferase” (J Med Chem, 1982)
# B1: Phenylethanolamine N-methyltransferase (Bos taurus), P10938 (protein)
# chain: MSGTDRSQAAGAVPDSDPGLAAVSSAYQRFEPRAYLRNNYAPPRGDLSCPDGVGPWKLRCLAQTFATGEVSGRTLIDIGSGPTIYQLLSACAHFEDITMTDFLEVNRQELRLWLREEPGAFDWSVYSQHVCLIEGKGESWQEKECQLRARVKRILPIDVHRPQPLGAGGLAPLPADALVSAFCLEAVSPDLASFQRALDHITTLLRPGGHLLLIGALEESWYLAGEARLAVVPVREEEVREALVRTATRCGICARTPMPAHLQTGVDDVKGIFFTRAQKKVGV
# Columns and labels:
# [1] = Vmax was determined; assay type: ADME
# [2] = target: T1, Phenylethanolamine N-methyltransferase (Bos taurus, UniProt P10938); assay: Tested for inhibitory activity against bovine adrenal norepinephrine N-methyl-transferase using phenylethanolamine as substrate
# T1 sequence (P10938 whole entry): B1 chain
# [3] = compound: NC[C@]1(O)CCC2CCCCC2C1; assay: (§1) Tested for inhibitory constant against bovine adrenal norepinephrine N-methyl-transferase
# [4] = compound: NCC1(O)CCCCCCCCCC1; assay: as §1
# [5] = compound: NC[C@@]1(O)CCC2CCCCC2C1; assay: as §1
Molecule,Vmax [1],Ki [2],Km [3],Km [4],Km [5]
NC[C@]1(O)CCC2CCCCC2C1 (some centres undefined),0.024 nmol/min/mg,3.8 µM,–,–,–
NC[C@@]1(O)CCC2CCCCC2C1 (some centres undefined),0.03 nmol/min/mg,5.63 µM,–,–,–
NCC1(O)CCCCCCCCCC1,0.04 nmol/min/mg,3.56 µM,–,–,–
B1,–,–,5.7 µM,6.8 µM,4.7 µM
